The record followed here is patent publication US20190046627A1, “USE OF A GNP-LLO91-99 COMPLEX FOR THE TREATMENT AND PREVENTION OF CANCER” (FUNDACIÓN INSTITUTO DE INVESTIGACIÓN MARQUES DE VALDECILLA, priority 2016, published 2019).

“Also recorded” adds a separate entry of the source. No end group written: not given here.

In assay [1] the test system is murine melanoma B16F10. Nature of the assay: Metastasis in the lung from murine melanoma (Example 3). To be noted: s.c. B16F10, 50 μg/ml inoculated in the tumors for 5 days. It counts as in vivo, mice. Here is the method: For the study of metastasis in the lung of murine melanoma following the use of different therapies and their comparison with that of the invention, 1×10^6 cells of murine melanoma B16F10 were inoculated in a subcutaneous manner just like in FIG. 1. Following 7 days post-inoculation, 50 μg/ml of the following therapeutic particles were inoculated in the tumors for 5 days: GNP (empty gluconanoparticles), GNP-LLO91-99 (gluconanoparticles synthesized with the peptide from listeriolysin O of Listeria monocytogenes, LLO91-99), GNP-GAPDH1-22 (nanoparticles synthesized with the peptide from glyceraldehyde-3-phosphate dehydrogenase of Listeria monocytogenes, GAPDH1-22) or no particle (NT). As a control, the vector previously used in therapy was also included consisting of dendritic cells loaded with the LLO91-99 (1×10^6 DC-LLO91-99) peptide.
Following this treatment, the mice were sacrificed and the lungs removed, which were washed with PBS. Subsequently, the tumor nodules were counted under a magnifying glass, which were observed as black spots on the lungs.

Another assay concerns murine melanoma B16OVA. In words: Prevention of tumor growth, intraperitoneal melanoma after preventive treatment (Example 5). It counts as in vivo, mice. Here is the method: For the comparative study of the prevention of tumor growth in adults between the therapy of the invention and known anti-tumor therapies, the following therapies (50 μg/ml) were inoculated in female adults of the C57BL/6 strain in an intraperitoneal manner: LLO91-99 (only peptide from listeriolysin O of Listeria monocytogenes, LLO91-99), GNP (empty gluconanoparticles), GNP-LLO91-99 (gluconanoparticles synthesized with the peptide from listeriolysin O of Listeria monocytogenes, LLO91-99), GNP-GAPDH1-22 (nanoparticles synthesized with the peptide from glyceraldehyde-3-phosphate dehydrogenase of Listeria monocytogenes, GAPDH1-22) or saline (NT).
Following 7 days preventative post-treatment, the tumors were established following inoculation with 5×10^6 cells of murine melanoma B16OVA in an intraperitoneal manner. Following 7 days post-established of the tumor, the mice were sacrificed and the recovered tumors were measured by means of a gauge and the tumors were analyzed by means of immunohistochemical staining. The results of the reduction of the tumor growth and their intraperitoneal position are shown in FIG. 4A and FIG. 4B and the results of the analysis of the immunohistochemical staining in FIG. 4C.

Assay [2] relates to murine melanoma B16F10. Nature of the assay: Reduction of the size of the tumor in newborns (Example 6). The note with it: 9-day old Balb/c mice, s.c. B16F10 established 5 days, 50 μg/ml in the tumors for 5 days. It counts as in vivo. Here is the method:
For the study of the reduction of the size of the tumor in newborns making use of different therapies and their comparison with that of the invention, 5×10^5 cells of murine melanoma B16F10 were inoculated in a subcutaneous manner in the interscapular area of 9-day old female mice of the Balb/c strain.
Following 5 days post-inoculation, 50 μg/ml of the following therapies were inoculated in the tumors for 5 days: LLO91-99 (only peptide from listeriolysin O of Listeria monocytogenes, LLO91-99), GNP (empty gluconanoparticles), GNP-LLO91-99 (gluconanoparticles synthesized with the peptide from listeriolysin O of Listeria monocytogenes, LLO91-99), GNP-GAPDH1-22 (nanoparticles synthesized with the peptide from glyceraldehyde-3-phosphate dehydrogenase of Listeria monocytogenes, GAPDH1-22). As a control, a vector previously used in therapy was also included, dendritic cells loaded with the LLO91-99 (1×10^5 DC-LLO91-99) peptide.
Following this treatment, the mice were sacrificed and the tumors recovered, measuring their size with a gauge.

The test system of assay [3] is glioblastoma (RG-1). Nature of the assay: In vitro apoptosis-necrosis, flow cytometry annexin V-APC / 7-ADD. The assay is classed as cell-based. The note with it: 10 μg/ml, 16 hours. As for the experimental part: (§1) 2.—In vitro apoptosis-necrosis. The different tumor cells (1×10^6 cells) are treated with 10 μg/ml of the GNP-LLO91-99 gold nanoparticles in culture plates, 16 hours prior to the apoptosis-necrosis analysis, including cells of each type of tumor without treatment with the gold nanoparticles (control). Following washing, the cells are analyzed by means of flow cytometry using two specific products, annexin V conjugated with the APC fluorochrome and the fluorescent marker for binding to DNA, 7-ADD (7-amino-actinomycin D). Apoptosis and necrosis in the tumor cells are analyzed by means of the differential marking with annexin V-APC and 7-ADD expressed as percentages. While the necrosis is indicated as the percentage of cells doubly marked with annexin V-APC and 7-ADD, the apoptosis is expressed as the percentage of cells marked only with annexin V.
Background: A flow cytometer gives signals particle by particle.

Test in assay [4]: as above
To be noted: 10 μg/ml, 16 hours, CHO. It counts as cell-based, hamster. As for the experimental part: (§2) 1.—Tumor cells. The cells used are: Hepa1-6, murine hepatocarcinoma, TC-1, murine lung carcinoma; B16F10, murine melanoma; A-375, human melanoma; hamster melanoma (ATCC).
as §1

Another assay has as its system A-375, human melanoma. In words: In vitro activation cell markers, flow cytometry. It counts as cell-based. To be noted: 10 μg/ml pre-treatment, A375. Here is the method:
as §2
(§3) 3.—Study of in vitro activation cell markers. The markers of the cell surface of the different tumor cells (1×10^6 cells) that are pre-treated or that are not pre-treated with 10 μg/ml of the GNP-LLO91-99 gold nanoparticles similar to the apoptosis process are analyzed by means of flow cytometry using the following antibodies (Miltenyi Biotech): anti-CD86-V450, anti-CD80-FITC, anti-MHC-II-APC, CD11c-PE, anti-NCAM-PE, anti-PD-1-V450.

Another assay deals with B16F10, murine melanoma. In words: In vitro activation cell markers, flow cytometry. To be noted: 10 μg/ml pre-treatment. It counts as cell-based. Here is the method:
as §2, §3

Assay [5] relates to glioblastoma (RG-1). Nature of the assay: In vitro activation cell markers, flow cytometry. The assay is classed as cell-based. The note with it: 10 μg/ml pre-treatment. As for the experimental part:
as §3

As to “GNP-LLO91-99: gluconanoparticles synthesized with the peptide from listeriolysin O of Listeria monocytogenes, LLO91-99 (GYKDGNEYI; also: gold glyconanoparticle conjugate; UniProt P13128 91-99, looked up, fragment)”, the “formation of metastasis in the lungs (in words)” value with murine melanoma B16F10 [1] is “prevents the formation of metastasis in the lungs”. In addition, the “prevention of the formation of metastasis in the lungs” value with murine melanoma B16F10 [1] (lung tumor nodules counted) is “more than 95%”. The “prevention of tumor growth” value in the assay on murine melanoma B16OVA (50 μg/ml intraperitoneal 7 days before i.p. B16OVA, adult C57BL/6, tumors measured 7 days after establishment) stood at 90%. Further, the “necrotizing foci in the melanomas” value in the assay on murine melanoma B16OVA (immunohistochemical staining of recovered peritoneal tumors) was determined as 60%. Besides, the “position of the tumor / spreading to other organs” value in the assay with murine melanoma B16OVA (intraperitoneal B16OVA after preventive treatment) was “positioned intraperitoneally preventing its spreading to other organs”. The “tumor regression in newborns” value with murine melanoma B16F10 [2] turned out to be 95%. Further, in the assay on glioblastoma (RG-1) [3], the “effect of inducing apoptosis” value is “not as significant”; the “induction of tumor apoptosis and necrosis” value is “induce both necrosis and apoptosis with the same percentages; also recorded: induce both tumor apoptosis and necrosis”. Besides, the “induction of tumor apoptosis and necrosis / inhibitory effect” value in assay [4] was “do not cause any inhibitory effect”. Further, the “expression of immune cell activation markers” value in the assay on A-375, human melanoma is “boosted the expression of various activation markers such as MHC-I, MHC-II, CD80 and PD-1”. The “expression of immune cell activation markers” value with B16F10, murine melanoma is “boosted the expression of various activation markers such as MHC-I, MHC-II, CD80 and PD-1”. Also, in the assay with glioblastoma (RG-1) [5], the “expression of MHC-I” value is “inhibition”, the “expression of MHC-II” value is on record as “no variation”, the “expression of NCAM-1” value is “no variation” and the “expression of immune cell activation markers” value is given as “no induction of expression of activation markers”.
